Test results published in patent US20240376120A1, “CAMPTOTHECIN COMPOUND, PREPARATION METHOD THEREFOR AND USE THEREOF” (priority 2021, published 2024).
Like-named read-outs stand apart in the source and are kept apart here.

Assays:
[1] = system: MCF-7 cells (human breast cancer cells); assay: MCF-7 cell proliferation inhibitory assay (CellTiter-Glo); type: cell-based; details: Homo sapiens
Protocol: • 1). […] Resuspend an appropriate amount of cell suspension to 4000 cells/100 μL according to the count, mixed well and then put the corresponding number of cells into a 96-well plate by pipette. • 3). Each hole of the edge was sealed with 100 μL DPBS and put into an incubator for culture. • 4). Day 1 drug addition: Prepare the storage solution of the compound to be tested 1 hour in advance. 24 h after plating, the culture medium was gradiently diluted to a concentration twice the final concentration of each group. Take out the plated cells from the incubator and add 100 μL of the corresponding 2-fold concentration medium to each well by pipette.
Day 1 detected: Take out the plate to be tested and an appropriate amount of CTG in advance and rewarm it at room temperature in the dark. 50 μL of CTG was added to each well at 24 h. Shake with the oscillator for 5 minutes, and after balancing in the dark for 5 minutes, detect the luminescence value with a microplate reader; The mixture was shaken for 5 min, and after equilibration in the dark for 5 min, the luminescence value was detected with ELISA. • 6). Day 4 detection: Take an appropriate amount of CTG 1 h in advance and rewarm it at room temperature in the dark. At the same time, take out the plate to be tested from the incubator and leave it to equilibrate at room temperature for 30 minutes; 72 h after adding the drug, 100 μL of culture medium was sucked out with pipette carefully from each cell well, and 50 μL of CTG was added. The mixture was shaken for 5 min, and after equilibration in the dark for 5 min, the luminescence value was detected with ELISA analyzer. • 7). Data analysis and processed.
Collect data and convert it into survival rate: Inhibition rate (%)=(100−(OD value of compound-OD value on the first day)/(OD value of control well-OD value on the first day))×100%
(§1) Input the compound into graphpad prism to obtain the corresponding IC50 value.

[2] = system: MDA-MB-231 cells (human breast cancer cells); assay: MDA-MB-231 cell proliferation inhibitory assay (CellTiter-Glo); type: cell-based; details: Homo sapiens
Protocol: (§2) • 1). […] Resuspend an appropriate amount of cell suspension to 3000 cells/100 μL according to the count, mixed well and then put the corresponding number of cells into a 96-well plate by pipette. • 3). Each hole of the edge was sealed with 100 μL DPBS and put into an incubator for culture. • 4). Day 1 drug addition: Prepare the storage solution of the compound to be tested 1 hour in advance. 24 h after plating, the culture medium was gradiently diluted to a concentration twice the final concentration of each group. Take out the plated cells from the incubator and add 100 μL of the corresponding 2-fold concentration medium to each well by pipette. • 5). Day 1 detected: Take out an appropriate amount of CTG 1 h in advance and the plate was allowed to equilibrate at room temperature for 30 min. 100 μL of CTG was added to each well and shaken for 5 mins, and then standed in the dark for 5 mins, the luminescence value was detected by ELISA. • 6). Day 4 detection: Take an appropriate amount of CTG 1 h in advance and rewarm it at room temperature in the dark. At the same time, take out the plate to be tested from the incubator and leave it to equilibrate at room temperature for 30 minutes; 72 h after adding the drug, 100 μL of culture medium was sucked out with pipette carefully from each cell well, and 100 μL of CTG was added. The mixture was shaken for 5 min, and after equilibration in the dark for 5 min, the luminescence value was detected with ELISA. • 7). Analyze data and write detailed experimental records.
as §1

[3] = in vitro; details: human, Caco-2
Protocol: Day 0 plated: After digesting the target cells in the logarithmic growth phase, make a single cell suspension and count. • 2). Took out the corresponding number of transwell chambers and placed them in a 24-well plate, added 200 μL PBS to the upper chamber, incubated for 10 mins, and removed the PBS from the upper chamber by pipette. • 3). According to the count, took an appropriate amount of cell suspension and resuspended it to 5000 cells/200 μL, mixed well and added it to the upper chamber of the transwell, and added 600 μL of complete culture medium to the lower chamber. • 4). medium exchanged on DAY1: The upper chamber and the lower chamber were exchanged with complete culture medium containing 0.1 mg/mL ascorbic acid for 9 days continuously, and the resistance value of membrane expansion was measured. […] Collected the liquid in the upper chamber and the lower chamber for detection. • 7). Calculated Papp according to the formula “Papp=dQ/(dt×A×C0)”. dQ/dt was the transport amount of drugs per unit time, which was the slope of the linear regression of cumulative drug release amount Q versus time t. A was the bottom area of the Transwell orifice plate membrane, and the bottom area was 0.33 cm^2 of 24-well plate in this experiment. Co was the initial concentration of drugs in the upper chamber (μg mL-1).

[4] = system: MDA-MB-435s cells (human melanoma cells); assay: MDA-MB-435s cell proliferation inhibitory assay (CellTiter-Glo); type: cell-based; details: Homo sapiens
Protocol: as §2
Collect data and convert it into survival rate: Inhibition rate (%)=(100−(OD value of compound−OD value on the first day)/(OD value of control well-OD value on the first day))×100%
as §1

[5] = MCF7, 72 h, read-out: Proliferation inhibition IC50
[6] = MDA-MB-231, 72 h, read-out: Proliferation inhibition IC50
[7] = MDA-MB-435S, 72 h, read-out: Proliferation inhibition IC50
[8] = MDA-MB-231 cells, 72 h after adding the drug, Table 2, read-out: Proliferation inhibition IC50
[9] = MDA-MB-435s cells, 72 h after adding the drug, Table 3, read-out: Proliferation inhibition IC50

## CC[C@@]1(O)C(=O)OCc2c1cc1n(c2=O)Cc2c-1nc1cc(F)c(C)cc1c2CO [Example 12b]
[1]; [5]
  IC50: 16.5 nM
[1]; MCF7, read-out: MCF-7 Proliferation inhibition IC50
  IC50: 16.5 nM
[2]; [6]
  IC50: 20.2 nM
[2]; MDA-MB-231, read-out: MDA-MB-231 Proliferation inhibition IC50
  IC50: 20.2 nM
[3]
  Papp A→B at 180 min, 100 μg/mL: 49.3 ×10⁻⁶ cm/s
[4]; [7]
  IC50: 3.2 nM
[4]; MDA-MB-435S, read-out: MDA-MB-435s Proliferation inhibition IC50
  IC50: 3.2 nM

## CC[C@@]1(O)C(=O)OCc2c1cc1n(c2=O)Cc2c-1nc1ccc(OC)cc1c2[C@H](C)N [Example 31a]
[1]; [5]
  IC50: 8.2 nM
[2]; [6]
  IC50: 15.1 nM
[4]; [7]
  IC50: 3.8 nM

## CC[C@@]1(O)C(=O)OCc2c1cc1n(c2=O)Cc2c-1nc1cc(F)c(C(F)(F)F)cc1c2[C@H](C)N [Example 34a]
[1]; [5]
  IC50: 9.6 nM
[2]; [6]
  IC50: 11.6 nM
[4]; [7]
  IC50: 4.37 nM

## CC[C@@]1(O)C(=O)OCc2c1cc1n(c2=O)Cc2c-1nc1cc(F)c(C)cc1c2[C@H](C)NC(=O)[C@@H](O)C1CC1 [Example 17]
[1]; [5]
  IC50: 7.8 nM
[2]; [6]
  IC50: 96.7 nM
[4]; [7]
  IC50: 6.3 nM

## CC[C@@]1(O)C(=O)OCc2c1cc1n(c2=O)Cc2c-1nc1cc(F)c(OC)cc1c2[C@H](C)N [Example 30a]
[1]; [5]
  IC50: 6.3 nM
[2]; [6]
  IC50: 11.6 nM
[4]; [7]
  IC50: 3.3 nM

## CC[C@@]1(O)C(=O)OCc2c1cc1n(c2=O)Cc2c-1nc1ccc(O)cc1c2[C@H](C)N [Example 6]
[1]; [5]
  IC50: 8.4 nM
[2]; [6]
  IC50: 1100 nM
[4]; [7]
  IC50: 36.8 nM

## CC[C@@]1(O)C(=O)OCc2c1cc1n(c2=O)Cc2c-1nc1cc(F)c(OC)cc1c2[C@@H](C)N [Example 30b]
[1]; [5]
  IC50: 3.8 nM
[2]; [6]
  IC50: 25 nM
[4]; [7]
  IC50: 0.9 nM

## CC[C@@]1(O)C(=O)OCc2c1cc1n(c2=O)Cc2c-1nc1cc(F)c(C)cc1c2[C@H](C)NC(=O)[C@H](O)C(F)(F)F [Example 18]
[1]; [5]
  IC50: 11.3 nM
[2]; [6]
  IC50: 150 nM
[4]; [7]
  IC50: 10.3 nM

## [2H]C([2H])([2H])[C@H](N)c1c2c(nc3cc(F)c(C)cc13)-c1cc3c(c(=O)n1C2)COC(=O)[C@]3(O)CC [Example 43a]
[1]; MCF7, MCF-7 cells, 72 h after adding the drug, Table 1, read-out: Proliferation inhibition IC50
  IC50: 5.1 nM
[2]; [8]
  IC50: 16.8 nM
[4]; [9]
  IC50: 3.31 nM

## CC[C@@]1(O)C(=O)OCc2c1cc1n(c2=O)Cc2c-1nc1cc(F)c(C)cc1c2[C@H](C)NC(=O)CO [Example 13]
[1]; [5]
  IC50: 8.3 nM
[2]; [8]
  IC50: 80.2 nM
[4]; [9]
  IC50: 2.8 nM

## CC[C@@]1(O)C(=O)OCc2c1cc1n(c2=O)Cc2c-1nc1ccccc1c2[C@@H](C)N [Example 3]
[1]; [5]
  IC50: 15.5 nM
[2]; [6]
  IC50: 120 nM
[4]; [7]
  IC50: 11.2 nM

## CC[C@@]1(O)C(=O)OCc2c1cc1n(c2=O)Cc2c-1nc1cc(F)c(C)cc1c2[C@H](C)NC(=O)C1(O)CC1 [Example 16]
[1]; [5]
  IC50: 12.3 nM
[2]; [6]
  IC50: 100 nM
[4]; [7]
  IC50: 8.2 nM

## CC[C@@]1(O)C(=O)OCc2c1cc1n(c2=O)Cc2c-1nc1cc(F)c(C)cc1c2[C@H](C)NC(=O)C1CCCCC1O (stereo partly shown) [Example 26]
[1]; [5]
  IC50: 35.2 nM
[2]; [6]
  IC50: 150 nM
[4]; [7]
  IC50: 5.6 nM

## CC[C@@]1(O)C(=O)OCc2c1cc1n(c2=O)Cc2c-1nc1cc(F)c(C)cc1c2[C@H](C)N [Example 2]
[1]; [5]
  IC50: 2.6 nM
[2]; [6]
  IC50: 15.7 nM
[4]; [7]
  IC50: 2.3 nM

## CC[C@@]1(O)C(=O)OCc2c1cc1n(c2=O)Cc2c-1nc1cc(F)c(OC)cc1c2[C@@H](C)O [Example 30d]
[1]; [5]
  IC50: 4.1 nM
[2]; [6]
  IC50: 28.1 nM
[4]; [7]
  IC50: 1.2 nM

## CC[C@@]1(O)C(=O)OCc2c1cc1n(c2=O)Cc2c-1nc1cc(F)c(C)cc1c2[C@H](C)N1CCN(C)CC1 [Example 42a]
[1]; [5]
  IC50: 14.6 nM
[2]; [6]
  IC50: 125 nM
[4]; [7]
  IC50: 3.21 nM

## CC[C@@]1(O)C(=O)OCc2c1cc1n(c2=O)Cc2c-1nc1cc3c(cc1c2[C@@H](C)N)OCO3 [Example 35b]
[1]; [5]
  IC50: 6.2 nM
[2]; [6]
  IC50: 7.1 nM
[4]; [7]
  IC50: 1.15 nM
